Earlier results on 1 compound are cited in patent US10966960B2 (Treeway TW001 B.V., priority 2017, dated 2021).

In brackets after ≈: the same amount, converted by molar mass.

For the data set the following is noted: 25° C.

In the case of `CC1=NN(c2ccccc2)C(=O)C1` [edaravone, 3-methyl-1-phenyl-2-pyrazolin-5-one], the solubility in water was around 1850 µg/mL (≈ 10.6 mM).
